{"source": "patent US10011628B2", "about": "“Multivalent sialic acid derivatives” (priority 2013, dated 2018)", "key": {"HAdV-37 fiber knob": {"target": "HAdV-37 fiber knob (Human adenovirus D37, UniProt Q64823)", "test": "Surface plasmon resonance (SPR), immobilized HAdV-37 fiber knobs", "type": "binding, human adenovirus HAdV-37", "settings": "for binding mode with HAdV-37 fiber knob: SPR", "protocol": "Finally, ME0385, ME0386 and ME0322 were investigated in surface plasmon resonance (SPR) experiments and their respective binding affinities (Kds) for immobilized HAdV-37 fiber knobs were determined (see below for further details). […] It is also worth noting the influence of the HAdV-37 fiber knob construct on the Kd values.\nThe kinetic measurements were performed using a surface plasmon resonance BIAcore T100 instrument. HAdV-37 knob proteins were covalently coupled to a CMS sensorchip using the amine coupling kit (GE Healthcare), to a concentration of 14-15 ng/mm^2 (˜15000RU). Binding of the trivalent sialic acid conjugates ME0322, ME0385 and ME0386 to the immobilized knob was performed in 10 mM HEPES, 0.15 M NaCl and 0.05% P20 pH 7.4 (1×HBS-EP+, GE Healthcare). The concentrations of trivalent sialic acid used were 400, 200, 100, 50 (twice), 25, 12.5 (twice), 6.25, 3.125, 1.56 and 0.78 μM. The binding affinities (Kds) were calculated using Biacore T100 evaluation software."}, "[1]": {"test_system": "HAdV-37 virions (attachment to HCE cells)", "settings": "reported in the art (background), cited from earlier work"}, "[2]": {"test_system": "HAdV-37 virions (infection of HCE cells)", "settings": "cited from earlier work"}, "[3]": {"test_system": "HAdV-37 virions (attachment to HCE cells)", "test": "Cell-binding assay: attachment of 35S-labeled HAdV-37 virions to HCE cells", "type": "cell-based", "settings": "read-out: IC50, preventing attachment of HAdV-37 virions to HCE cells", "protocol": "In order to investigate the efficiency of the newly synthesized compounds (ME0385, ME0386, ME0407, ME0408, ME0461, and ME0462) to prevent the attachment of HAdV-37 virions to HCE cells, cell-binding assays based on ^35S-labeled virions were performed. Based on previous studies ME0322, sialic acid and GD1a glycan were used as reference compounds (Nilsson et al N. Nat. Med. 2011, 17, 105 and Spjut et al Angew. Chem. Int. Ed. 2011, 50, 6519). The assays were carried out (see below for further details) essentially as previously described (Arnberg et al J. Virol. 2000, 74, 42 and Arnberg et al J. Virol. 2000, 74, 7691).\nIn brief, ^35S-labeled HAdV-37 virions were pre-incubated with or without the trivalent sialic acid derivatives, GD1a glycan and sialic acid at various concentrations. The mixtures were incubated with HCE cells and unbound virions were then washed away. Finally, the cell-associated radioactivity was counted by using a scintillation counter.\nS-labeled HAdV-37 virions (5×10^8/well) were pre-incubated in binding buffer (50 μL; BB: Dulbecco's modified eagle's medium containing 1% BSA (Roche AB, Stockholm, Sweden) and HEPES (20 mM, EuroClone, Milan, Italy), pH 7.5) with or without the trivalent sialic acid derivatives, GD1a glycan or sialic acid at various concentrations (cf. FIG. 1a) in a 96-well microplate at +4° C. for 1 h. These mixtures were then added to HCE cells prepelleted (1×10^5/well) in a 96-well microplate. After re-suspension, the mixtures were incubated at +4° C. for 1 h. Finally, unbound virions were washed away with BB and the cell-associated radioactivity was counted by using a Wallac 1409 scintillation counter."}, "[4]": {"test_system": "HAdV-37 virions (infection of HCE cells)", "test": "Infection assay: infection of HCE cells by HAdV-37 virions (immunofluorescence)", "type": "cell-based", "settings": "for IC50: Human adenovirus sp., HCE, 44 h of infection, immunofluorescence, read-out: IC50, preventing infection of HCE cells by HAdV-37 virions; for prevention of infection of HCE cells by HAdV-37 virions compared with ME0322: in words", "protocol": "In order to confirm the results from the cell-binding assays and to further evaluate our set of compounds, infection experiments were performed (FIGS. 1b, 3a and 3b). The assays were carried out (see below for further details) essentially as previously described ((Arnberg et al. J. Virol. 2000, 74, 42 and Arnberg et al. J. Virol. 2000, 74, 7691)).\nIn brief, unlabeled virions were pre-incubated with or without the trivalent sialic acid derivatives, GD1a glycan or sialic acid at various concentrations. These mixtures were then added to HCE cells and incubated at +4° C. Unbound virions were washed away, the resulting mixtures were incubated at +37° C. and a synchronized infection—all virions enter the cells simultaneously—was then obtained. After 44 h of infection, the cells were rinsed, fixed, incubated with rabbit polyclonal anti-HAdV-37 antibodies prior to being washed and stained. Finally, the cells were washed and examined by immunofluorescence microscopy.\n7×10^7 non-labeled virions/well in 48-well plates were pre-incubated in serum free growth media (2004), with or without the trivalent sialic acid derivatives, GD1a glycan or sialic acid at various concentrations (cf. FIG. 2B) at +4° C. After 1 h, the mixtures were transferred to new 48-well plates containing 1×10^5 adherent HCE cells/well and incubated at +4° C. After 1 h, unbound virions were washed away with serum free growth media and the resulting mixtures were incubated with growth media containing 1% fetal bovine serum (FBS) at +37° C. After 44 h of infection, the cells were rinsed in PBS, fixed with cold (−20° C.) 99% methanol for 10 min and incubated with rabbit polyclonal anti-HAdV-37 antibodies diluted 1:200 in PBS (pH 7.4) at room temperature. After 1 h, the cells were washed in PBS and stained with FITC-labeled swine anti-rabbit IgG antibodies (Dako-cytomation, Glostrup, Denmark) diluted 1:100 in PBS for 1 h at room temperature. Finally, the cells were washed in PBS and examined in an immunofluorescence microscope (Axiovert 25, Carl Zeiss, Germany; 10× magnification)."}, "[5]": {"settings": "35S-labeled virions pre-incubated with compound, +4° C., HCE cells"}}, "note": "Read-outs that look alike come from different tables or passages of the source.", "data": [{"molecule": "CC(=O)NC1C(O)CC(OCCCCCNc2c(NCCN(CCNc3c(NCCCCCOC4(C(=O)O)CC(O)C(NC(C)=O)C(C(O)C(O)CO)O4)c(=O)c3=O)CCNc3c(NCCCCCOC4(C(=O)O)CC(O)C(NC(C)=O)C(C(O)C(O)CO)O4)c(=O)c3=O)c(=O)c2=O)(C(=O)O)OC1C(O)C(O)CO", "note": "(centres unmarked) [ME0322]", "values": [{"measurement": "binding mode with HAdV-37 fiber knob", "setting": "HAdV-37 fiber knob", "value": "one-to-one binding mode"}, {"measurement": "Kd", "setting": "HAdV-37 fiber knob; read-out: binding affinity (Kd) for immobilized HAdV-37 fiber knobs, BIAcore T100, HBS-EP+ pH 7.4", "value": 126, "unit": "µM"}, {"measurement": "potency compared with natural sialic acid monosaccharide", "setting": "[1]; assay not specified", "value": "four orders of magnitude more potent than the natural sialic acid monosaccharide"}, {"measurement": "preventing binding of the virus, compared with 17-valent sialic acid-HSA conjugate", "setting": "[1]", "value": "as effective as 17-valent sialic acid-HSA conjugate"}, {"measurement": "IC50", "setting": "[2]; infection of HCE cells by HAdV-37, earlier estimate, read-out: half maximal inhibitory concentration, previously estimated", "value": 0.38, "unit": "µM"}, {"measurement": "inhibiting infection of HCE cells by HAdV-37, compared with HSA-conjugate", "setting": "[2]; reported in the art (background)", "value": "far more potent than the HSA-conjugate"}]}, {"molecule": "CC(=O)NC1C(O)CC(OCCn2cc(CN(Cc3cn(CCOC4(C(=O)O)CC(O)C(NC(C)=O)C(C(O)C(O)CO)O4)nn3)Cc3cn(CCOC4(C(=O)O)CC(O)C(NC(C)=O)C(C(O)C(O)CO)O4)nn3)nn2)(C(=O)O)OC1C(O)C(O)CO", "note": "[ME0385, Tris ((1-(2-O-(5-N-acetamido-3,5-dideoxy-D-glycero-α-D-galacto-2-nonylopyranosylonic acid))-2-oxoethyl-1H-1,2,3-triazol-4-yl)methyl)amine]", "values": [{"measurement": "IC50", "setting": "[3]; Human adenovirus sp., HCE", "value": 0.107, "unit": "µM"}, {"measurement": "IC50", "setting": "[4]", "value": 0.166, "unit": "µM"}, {"measurement": "Kd", "setting": "HAdV-37 fiber knob", "value": 76, "unit": "µM"}, {"measurement": "binding mode with HAdV-37 fiber knob", "setting": "HAdV-37 fiber knob", "value": "one-to-one binding mode"}]}, {"molecule": "CC(=O)N[C@@H]1C(O)C[C@](OCCCn2cc(CN(Cc3cn(CCCO[C@@]4(C(=O)O)CC(O)[C@H](NC(C)=O)C(C(O)C(O)CO)O4)nn3)Cc3cn(CCCO[C@]4(C(=O)O)CC(O)[C@@H](NC(C)=O)C(C(O)C(O)CO)O4)nn3)nn2)(C(=O)O)OC1C(O)C(O)CO", "note": "(stereo partly drawn) [ME0386, Tris ((1-(2-O-(5-N-acetamido-3,5-dideoxy-D-glycero-α-D-galacto-2-nonylopyranosylonic acid))-3-oxopropyl-1H-1,2,3-triazol-4-yl)methyl)amine]", "values": [{"measurement": "IC50", "setting": "[3]; Human adenovirus sp., HCE", "value": 0.04, "unit": "µM"}, {"measurement": "IC50", "setting": "[4]", "value": 0.118, "unit": "µM"}, {"measurement": "Kd", "setting": "HAdV-37 fiber knob", "value": 69, "unit": "µM"}, {"measurement": "binding mode with HAdV-37 fiber knob", "setting": "HAdV-37 fiber knob", "value": "one-to-one binding mode"}]}, {"molecule": "CCC(=O)N[C@H]1[C@H]([C@H](O)[C@H](O)CO)O[C@@](OCCCn2cc(CN(Cc3cn(CCCO[C@]4(C(=O)O)C[C@H](O)[C@@H](NC(=O)CC)[C@H]([C@H](O)[C@H](O)CO)O4)nn3)Cc3cn(CCCO[C@]4(C(=O)O)C[C@H](O)[C@@H](NC(=O)CC)[C@H]([C@H](O)[C@H](O)CO)O4)nn3)nn2)(C(=O)O)C[C@@H]1O", "note": "[ME0407]", "values": [{"measurement": "IC50", "setting": "[3]; [5]", "value": 23.4, "unit": "µM"}]}, {"molecule": "CC(=O)N[C@@H]1C(O)C[C@](OCc2cn(CCN(CCn3cc(CO[C@]4(C(=O)O)CC(O)[C@@H](NC(C)=O)C(C(O)C(O)CO)O4)nn3)CCn3cc(CO[C@]4(C(=O)O)CC(O)[C@@H](NC(C)=O)C(CO)(C(O)CO)O4)nn3)nn2)(C(=O)O)OC1C(O)C(O)CO", "note": "(stereo partly drawn) [ME0462, Tris ((4-(2-O-(5-N-acetamido-3,5-dideoxy-D-glycero-α-D-galacto-2-nonulopyranosylonic acid))-2-oxomethyl-1H-1,2,3-triazol-1-yl)ethyl)amine]", "values": [{"measurement": "IC50", "setting": "[3]; Human adenovirus sp., HCE", "value": 0.0014, "unit": "µM"}, {"measurement": "IC50", "setting": "[4]", "value": 0.0021, "unit": "µM"}, {"measurement": "prevention of infection of HCE cells by HAdV-37 virions compared with ME0322", "setting": "[4]", "value": "more efficiently than ME0322"}, {"measurement": "Kd", "setting": "HAdV-37 fiber knob", "value": 9.5, "unit": "µM"}]}, {"molecule": "CC(=O)N[C@H]1[C@H]([C@H](O)[C@H](O)CO)OC(O)(C(=O)O)C[C@@H]1O", "note": "(some centres unmarked) [sialic acid]", "values": [{"measurement": "IC50", "setting": "[3]; Human adenovirus sp., HCE", "value": 1200, "unit": "µM"}]}, {"molecule": "Tris ((1-(2-O-(5-N-propanoylamido-3,5-dideoxy-D-glycero-α-D-galacto-2-nonylopyranosylonic acid))-2-oxoethyl-1H-1,2,3-triazol-4-yl)methyl)amine [ME0408]", "values": [{"measurement": "IC50", "setting": "[3]; [5]", "value": 4.5, "unit": "µM"}]}, {"molecule": "Tris ((4-(2-O-(5-N-acetamido-3,5-dideoxy-D-glycero-α-D-galacto-2-nonulopyranosylonic acid))-2-oxoethyl-1H-1,2,3-triazol-1-yl)ethyl)amine [ME0461]", "values": [{"measurement": "IC50", "setting": "[3]; [5]", "value": 0.376, "unit": "µM"}, {"measurement": "prevention of infection of HCE cells by HAdV-37 virions compared with ME0322", "setting": "[4]", "value": "more efficiently than ME0322"}]}]}
